Measured values reported in paper PMC9386805 (ACS Omega, 2022).
Converted amounts (≈) assume the structure as drawn.

Tests used:
Assay in all cases: MIC by microdilution
Assay type in all cases: cell-based
[1] = tested on: Salmonella enterica subsp. enterica serovar Typhimurium (ATCC 14028); conditions: ATCC14028|TYPHIMURIUM, read-out: MIC, ST
[2] = tested on: P. aeruginosa (Schroeter) Migula (ATCC 27853); conditions: Pseudomonas aeruginosa, ATCC27853, read-out: MIC, PA
[3] = tested on: E. coli (Migula) Castellani and Chalmers (ATCC 25922); conditions: Escherichia coli, ATCC25922, read-out: MIC, EC
[4] = tested on: S. aureus subsp. aureus Rosenbach (ATCC 25923); conditions: Staphylococcus aureus, ATCC25923, read-out: MIC, SA

MIC [1]: 2 µg/mL (≈ 4.19 µM)
MIC [2]: 4 µg/mL (≈ 8.38 µM)
MIC [3]: 8 µg/mL (≈ 16.8 µM)
MIC [4]: 4 µg/mL (≈ 8.38 µM)
Structure (SMILES): CNC(C)C1CCC(N)C(OC2C(N)CC(N)C(OC3OCC(C)(O)C(NC)C3O)C2O)O1 (stereo not shown) [gentamicin]
